Data on 28 molecules can be found in patent US9115151B2, “Substituted 2,10-dihydro-9-oxa-1,2,4A-triazaphenanthren-3-ones and uses thereof” (AbbVie Inc., priority 2012, dated 2015).

One test deals with T1, PKCα (Homo sapiens, UniProt P17252).
T1 construct: His6; purchased Millipore; host or cells: baculovirus in Sf21 cells
Nature of the test: In vitro enzyme assay (time-resolved fluorescence kinase assay), PKCα, 100 μM ATP. The test is classed as biochemical. The conditions noted are these: 100 μM ATP; read-out: PKCα enzyme IC50. An outline of the steps:
(§1)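 Read-out was time-resolved fluorescence, corrected for a minus-enzyme blank and converted to percent activity relative to enzyme without drug. They were stopped with EDTA.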

Test [1] relates to CD3/CD28 induced IL-2 in human T-Blasts. Nature of the test: T-Blasts CD3/CD28 induced IL-2 assay. Type of test: cell-based. To be noted: read-out: CD3/CD28-stimulated IL2 in T-blasts EC50. The essentials:
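PHA-generated human T-blasts, 2×10^5 per well, preincubated 30 min with 8-point 1/3 compound dilutions in duplicate, then stimulated with anti-CD3+anti-CD28 (5 μg/mL final) for 24 h at 37° C. Supernatant IL-2 measured; MTT toxicity run on remaining cells.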

A further test deals with T2, PKCθ (Homo sapiens, UniProt Q04759).
T2 construct: His6; purchased Millipore; host or cells: baculovirus in Sf21 cells
Nature of the test: In vitro enzyme assay (time-resolved fluorescence kinase assay), PKCθ, 100 μM ATP. Type of test: biochemical. An outline of the steps:
as §1

Molecules are shown by their SMILES. Structures can show the parent of a compound that is named as a salt.

T2 sequence (Q04759 whole entry): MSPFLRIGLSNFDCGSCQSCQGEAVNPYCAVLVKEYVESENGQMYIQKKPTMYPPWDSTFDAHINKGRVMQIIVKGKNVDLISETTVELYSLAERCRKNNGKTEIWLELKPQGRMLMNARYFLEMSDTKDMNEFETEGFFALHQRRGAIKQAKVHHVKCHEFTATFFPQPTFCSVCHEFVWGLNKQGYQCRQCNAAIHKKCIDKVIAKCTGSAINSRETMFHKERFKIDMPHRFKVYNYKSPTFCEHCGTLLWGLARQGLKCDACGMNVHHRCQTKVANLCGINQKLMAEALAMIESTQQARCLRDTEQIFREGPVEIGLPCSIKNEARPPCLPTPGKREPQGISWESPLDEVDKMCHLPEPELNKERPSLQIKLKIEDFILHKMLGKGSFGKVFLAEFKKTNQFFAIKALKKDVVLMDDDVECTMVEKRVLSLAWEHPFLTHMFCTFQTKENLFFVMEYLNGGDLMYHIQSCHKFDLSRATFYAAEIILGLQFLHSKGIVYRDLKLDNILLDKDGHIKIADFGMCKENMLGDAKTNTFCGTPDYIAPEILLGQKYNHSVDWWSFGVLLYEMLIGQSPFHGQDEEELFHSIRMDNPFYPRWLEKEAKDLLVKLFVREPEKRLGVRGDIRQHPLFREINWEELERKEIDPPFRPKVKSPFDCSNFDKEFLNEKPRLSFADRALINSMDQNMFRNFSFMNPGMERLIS

One may read the IC50 as the concentration that gives 50% inhibition. As for `CC(C)c1cc2c(cc1[C@@H](C)C1(C)CN(C)C1)N1C(=NNC(=O)[C@H]1C)CO2` [Example 134, (R)-6-[(R)-1-(1,3-Dimethyl-azetidin-3-yl)-ethyl]-7-isopropyl-4-methyl-2,10-dihydro-9-oxa-1,2,4a-triaza-phenanthren-3-one], the 50% inhibitory concentration (IC50) is 1000 to 10000 nM on PKCα and under 250 nM at PKCθ. For the same molecule, in test [1], the EC50 fell in the range of 250 to 1000 nM.

For `C[C@@H]1C(=O)NN=C2COc3cc(-c4ccccc4CO)c([C@@H](C)C4(C)CN(C)C4)cc3N21` [Example 135], the half-maximal inhibitory concentration (IC50) is 250 to 1000 nM at PKCα and under 250 nM against PKCθ. The EC50 in test [1] was under 250 nM.

With `C[C@@H]1C(=O)NN=C2COc3cc(-c4ccco4)c([C@@H](C)C4(C)CN(C)C4)cc3N21` [Example 136], the half-maximal inhibitory concentration (IC50) at PKCα is 1000 to 10000 nM; on PKCθ, under 250 nM. Besides, the EC50 in test [1] was in the range of 250 to 1000 nM.

On to `C[C@@H]1C(=O)NN=C2COc3cc(-c4ccccc4C(C)(C)O)c([C@@H](C)C4(C)CN(C)C4)cc3N21` [Example 137, (R)-6-[(R)-1-(1,3-Dimethyl-azetidin-3-yl)-ethyl]-7-[2-(1-hydroxy-1-methyl-ethyl)-phenyl]-4-methyl-2,10-dihydro-9-oxa-1,2,4a-triaza-phenanthren-3-one], for which the IC50 on PKCα was 1000 to 10000 nM; at PKCθ, under 250 nM. In test [1], the EC50 fell in the range of 250 to 1000 nM.

On to `CC(C)c1cc2c(cc1[C@@H](C)C1(C)CN(CCO)C1)N1C(=NNC(=O)[C@H]1C)CO2` [Example 138, (R)-6-{(R)-1-[1-(2-Hydroxy-ethyl)-3-methyl-azetidin-3-yl]-ethyl}-7-isopropyl-4-methyl-2,10-dihydro-9-oxa-1,2,4a-triaza-phenanthren-3-one hydrochloric acid], for which the IC50 was 250 to 1000 nM on PKCα and under 250 nM against PKCθ. For the same molecule, the EC50 in test [1] was in the range of 250 to 1000 nM.

Consider `C[C@H](O)CN1CC(C)([C@H](C)c2cc3c(cc2-c2ccccc2F)OCC2=NNC(=O)[C@@H](C)N23)C1` [Example 139, (R)-7-(2-Fluoro-phenyl)-6-{(R)-1-[1-((S)-2-hydroxy-propyl)-3-methyl-azetidin-3-yl]-ethyl}-4-methyl-2,10-dihydro-9-oxa-1,2,4a-triaza-phenanthren-3-one hydrochloric acid], for which the IC50 at PKCα and on PKCθ was under 250 nM each time. Moreover, in test [1], the EC50 is under 250 nM.

For the molecule `C[C@@H]1C(=O)NN=C2COc3cc(-c4ccccc4F)c([C@@H](C)C4(C)CN(C[C@@H](C)O)C4)cc3N21` [Example 140], the IC50 was 250 to 1000 nM at PKCα and under 250 nM against PKCθ. Besides, in test [1], the EC50 is under 250 nM.

As for `C[C@@H]1C(=O)NN=C2COc3cc(-c4ccccc4F)c([C@@H](C)C4(C)CN(CCO)C4)cc3N21` [Example 141], the IC50 on PKCα was 250 to 1000 nM; on PKCθ, under 250 nM. Moreover, the EC50 in test [1] is under 250 nM.

For `C[C@@H]1C(=O)NN=C2COc3cc(-c4ccccc4F)c([C@@H](C)C4(C)CN(CC5CCOCC5)C4)cc3N21` [Example 142], the half-maximal inhibitory concentration (IC50) on PKCα was 1000 to 10000 nM; against PKCθ it was under 250 nM. Also, the EC50 in test [1] lay in the range of 250 to 1000 nM.

On to `C[C@@H]1C(=O)NN=C2COc3cc(-c4ccccc4F)c([C@@H](C)C4(C)CN(CC(C)(C)O)C4)cc3N21` [Example 143], for which the IC50 is 250 to 1000 nM on PKCα and under 250 nM against PKCθ. In test [1], the EC50 was under 250 nM.

With `C[C@@H]1C(=O)NN=C2COc3cc(-c4ccccc4F)c([C@@H](C)C4(C)CN(CC5COC5)C4)cc3N21` [Example 144], the IC50 is 1000 to 10000 nM at PKCα and under 250 nM at PKCθ. The EC50 in test [1] fell in the range of 250 to 1000 nM.

On to `COCCN1CC(C)([C@H](C)c2cc3c(cc2-c2ccccc2F)OCC2=NNC(=O)[C@@H](C)N23)C1` [Example 145], for which the half-inhibitory concentration (IC50) is 1000 to 10000 nM at PKCα and under 250 nM on PKCθ. The EC50 in test [1] lay within 250 to 1000 nM.

Turning to `C[C@@H]1C(=O)NN=C2COc3cc(-c4ccccc4F)c([C@@H](C)C4(C)CNC4)cc3N21` [Example 146, (R)-7-(2-Fluoro-phenyl)-4-methyl-6-[(R)-1-(3-methyl-azetidin-3-yl)-ethyl]-2,10-dihydro-9-oxa-1,2,4a-triaza-phenanthren-3-one], the IC50 on PKCα and against PKCθ was under 250 nM in each case. The EC50 in test [1] was under 250 nM.

As for `C[C@@H]1C(=O)NN=C2COc3cc4ccn(C5(C)CNC5)c4cc3N21` [Example 148, (R)-1-Methyl-10-(3-methyl-azetidin-3-yl)-3,5-dihydro-10H-6-oxa-3,4,10,11b-tetraaza-cyclopenta[b]phenanthren-2-one hydrochloride], the concentration for half-maximal inhibition (IC50) at PKCα was 250 to 1000 nM; on PKCθ it was under 250 nM. The EC50 in test [1] was under 250 nM.

Take `[2H]c1cn(C2(C)CNC2)c2cc3c(cc12)OCC1=NNC(=O)C(C)N13` (stereo not drawn) [Example 149, 8-Deuterated-1-methyl-10-(3-methyl-azetidin-3-yl)-3,5-dihydro-10H-6-oxa-3,4,10,11b-tetraaza-cyclopenta[b]phenanthren-2-one hydrochloride]: the IC50 at PKCα is 1000 to 10000 nM; on PKCθ it was under 250 nM. Further, the EC50 in test [1] was under 250 nM.

`CCC1(n2ccc3cc4c(cc32)N2C(=NNC(=O)[C@H]2C)CO4)CNC1` [Example 150]: the values for the IC50 at PKCα and against PKCθ were 1000 to 10000 nM and under 250 nM, respectively. Further, in test [1], the EC50 is 250 to 1000 nM.

On to `C[C@@H]1C(=O)NN=C2COc3cc4ccn([C@H]5CCNC5)c4cc3N21` [Example 151-1, (R)-1-Methyl-10-(S)-pyrrolidin-3-yl-3,5-dihydro-10H-6-oxa-3,4,10,11b-tetraaza-cyclopenta[b]phenanthren-2-one hydrochloric acid], for which the half-maximal inhibitory concentration (IC50) on PKCα was 250 to 1000 nM; on PKCθ, under 250 nM. For the same molecule, in test [1], the EC50 was under 250 nM.

`C[C@@H]1C(=O)NN=C2COc3cc4ccn([C@@H]5CCNC5)c4cc3N21` [Example 151-2, (R)-1-Methyl-10-(R)-pyrrolidin-3-yl-3,5-dihydro-10H-6-oxa-3,4,10,11b-tetraaza-cyclopenta[b]phenanthren-2-one hydrochloric acid]: the figures for the IC50 on PKCα and on PKCθ were 1000 to 10000 nM and under 250 nM, respectively. Moreover, the EC50 in test [1] lay within 250 to 1000 nM.

With `CC1C(=O)NN=C2COc3cc4ccn(C5CCCNC5)c4cc3N21` (stereo not drawn) [Example 152], the IC50 on PKCα is 1000 to 10000 nM; on PKCθ, under 250 nM. Besides, in test [1], the EC50 lay in the range of 250 to 1000 nM.

On to `C[C@@H]1C(=O)NN=C2COc3cc4c(cc3N21)N([C@@H]1CCNC1)CC4` [Example 153, (R)-1-Methyl-10-(R)-pyrrolidin-3-yl-3,5,9,10-tetrahydro-8H-6-oxa-3,4,10,11b-tetraaza-cyclopenta[b]phenanthren-2-one hydrochloric acid], for which the 50% inhibitory concentration (IC50) at PKCα fell in the range of 1000 to 10000 nM; on PKCθ, 250 to 1000 nM. In test [1], the EC50 was in the range of 1000 to 10000 nM.

With `C[C@@H]1C(=O)NN=C2COc3cc4c(cc3N21)N([C@H]1CCNC1)CC4` [Example 154, (R)-1-Methyl-10-(S)-pyrrolidin-3-yl-3,5,9,10-tetrahydro-8H-6-oxa-3,4,10,11b-tetraaza-cyclopenta[b]phenanthren-2-one hydrochloric acid], the IC50 on PKCα is 1000 to 10000 nM; against PKCθ it was under 250 nM. Besides, the EC50 in test [1] was 250 to 1000 nM.

For the molecule `CC(=O)N1CC(C)(n2ccc3cc4c(cc32)N2C(=NNC(=O)[C@H]2C)CO4)C1` [Example 155, (R)-10-(1-Acetyl-3-methyl-azetidin-3-yl)-1-methyl-3,5-dihydro-10H-6-oxa-3,4,10,11b-tetraaza-cyclopenta[b]phenanthren-2-one hydrochloric acid], the IC50 at PKCα was 1000 to 10000 nM; against PKCθ, under 250 nM. Also, the EC50 in test [1] fell in the range of 250 to 1000 nM.

As to `CCc1cn(C2(C)CNC2)c2cc3c(cc12)OCC1=NNC(=O)[C@@H](C)N13` [Example 156, (R)-8-Ethyl-1-methyl-10-(3-methyl-azetidin-3-yl)-3,5-dihydro-10H-6-oxa-3,4,10,11b-tetraaza-cyclopenta[b]phenanthren-2-one hydrochloride], the IC50 is 1000 to 10000 nM at PKCα and under 250 nM against PKCθ. In test [1], the EC50 is 250 to 1000 nM.

Regarding `Cc1cn(C2(C)CNC2)c2cc3c(cc12)OCC1=NNC(=O)[C@@H](C)N13` [Example 157], the half-inhibitory concentration (IC50) is 250 to 1000 nM on PKCα and under 250 nM on PKCθ. Besides, the EC50 in test [1] is under 250 nM.

With `CC1C(=O)NN=C2COc3cc4c(cc3N21)N(C1(C)CNC1)CC4` (stereo not drawn) [Example 158, 1-Methyl-10-(3-methyl-azetidin-3-yl)-3,5,9,10-tetrahydro-8H-6-oxa-3,4,10,11b-tetraaza-cyclopenta[b]phenanthren-2-one 2,2,2-trifluoroacetate], the IC50 was 1000 to 10000 nM on PKCα and under 250 nM against PKCθ. In addition, the EC50 in test [1] was under 250 nM.

As to `C[C@@H]1C(=O)NN=C2COc3cc4c(cc3N21)N(C1(C)CNC1)CC4` [Example 159, 1-Methyl-10-(3-methyl-azetidin-3-yl)-3,5,9,10-tetrahydro-8H-6-oxa-3,4,10,11b-tetraaza-cyclopenta[b]phenanthren-2-one hydrochloride], the concentration for half-maximal inhibition (IC50) was 1000 to 10000 nM on PKCα and under 250 nM against PKCθ. Besides, the EC50 in test [1] was under 250 nM.

`C[C@@H]1C(=O)NN=C2COc3cc4ccn(C5(C)CN(C)C5)c4cc3N21` [Example 160, (R)-10-(1,3-Dimethyl-azetidin-3-yl)-1-methyl-3,5-dihydro-10H-6-oxa-3,4,10,11b-tetraaza-cyclopenta[b]phenanthren-2-one hydrochloride]: the IC50 at PKCα was 250 to 1000 nM; at PKCθ, under 250 nM. The EC50 in test [1] is under 250 nM.

Consider `C[C@H]1C(=O)NN=C2COc3cc4ccn([C@@]5(C)CCNC5)c4cc3N21` [Example 162, (S)-1-Methyl-10-((S)-3-methyl-pyrrolidin-3-yl)-3,5-dihydro-10H-6-oxa-3,4,10,11b-tetraaza-cyclopenta[b]phenanthren-2-one], for which the concentration for half-maximal inhibition (IC50) on PKCα is 250 to 1000 nM; against PKCθ it was under 250 nM. Besides, the EC50 in test [1] is under 250 nM.
